Measured values as given in patent USRE35517E, “Method, compositions, and compounds for modulating brain excitability” (priority 1992, dated 1997).
Like-named read-outs stand apart in the source and are kept apart here.

Columns and labels:
[1] = tested on: GABA/benzodiazepine receptor-chloride ionopore complex (GBR complex); assay: Dissociation kinetics of [35S]TBPS in rat cerebral cortical membranes; assay type: binding; settings: for biphasic dissociation mechanism of [35S]TBPS: FIGS. 2A, 2B, pentobarbital 30 micromolar, alphaxalone 300 nanomolar, 5-alpha-pregnan-3-alpha-hydroxy-20-one 20 nanomolar; for t1/2, R (rapidly dissociating component) / t1/2, S (slowly dissociating component): 30 nM Na pentobarbital; for Total percentage of specific sites, R: rapidly dissociating component, Na pentobarbital (**P < 0.01 vs control); for Total percentage of specific sites, S: slowly dissociating component, Na pentobarbital (*P < 0.05 vs control)
Method: An assay was performed to determine the effect of pentobarbital on the dissociation kinetics of [^35 S]TBPS in rat cerebral cortical membranes. This assay was performed in accordance with the procedures outlined above. […] Dissociation of bound [^35 ]TBPS was initiated by 2 micromolar TBPS in all cases.

rotorod performance [2] = assay: Rotorod test (sedative potential); set-up: ED50 RR (rotorod): unit not given beside the values; settings: mice
BZ receptor = assay: Modulation of [3H]flunitrazepam binding in rat hippocampal homogenates, with pentobarbital (FIG. 3); settings: 1.0 millimolar pentobarbital, 0.25 nM [3H]FLU, absence of GABA
convulsions = assay: Anticonvulsant screen (chemical convulsants and maximal electroshock), overall; assay type: in vivo, mice; settings: in comparison to clinically useful anticonvulsants, benzodiazepines
Method: Experiments were also performed to determine the physiological relevance of these interactions by measuring the ability of the compounds of and used in the invention to modulate TBPS-induced convulsions in Swiss-Webster mice. […] The time to onset of myoclonus (presence of forelimb clonic activity) induced by TBPS was determined by observing each mouse of a period of 45 minutes. Significant differences between the time to onset in control mice vs. steroid-treated mice were determined by Student's t-test. […] The number of animals with tonic and/or clonic convulsions was recorded. In the maximal electroshock test, 50 mA of current at 60 Hz was delivered through corneal electrodes for 200 msec. […] The ED50 (the dose at which the half-maximal effect occurs) dose was determined for each screen.

Acute lethality (LD50) = settings: mice; from therapeutic index
[3] = tested on: GABA/benzodiazepine receptor-chloride ionopore complex (GBR complex); assay: Modulation of [35S]TBPS binding in rat cerebral cortex P2 homogenate; set-up: species or system rat (male Sprague-Dawley); settings: for CONTROL IC50: inhibition of basal 2 nM [35S]TBPS binding; for CONTROL IC50 / +5 μM IC50: 25° C., 90 minutes; for +5 μM IC50: inhibition of 2 nM [35S]TBPS binding, +5 μM (GABA)
Method: These procedures were performed as follows:

picrotoxin = tested on: picrotoxin; set-up: key: NP: no protection; settings: mice, cited from earlier work
strychnine = tested on: strychnine; set-up: key to ED50 STR (strychnine): NP: no protection; settings: mice, cited from earlier work
[4] = tested on: (+)bicuculline-induced seizures; set-up: key: NP: no protection; settings: mice, cited from earlier work
metrazol = tested on: metrazol; set-up: key: NP: no protection; settings: mice, cited from earlier work
maximal electroshock = tested on: maximal electroshock; set-up: unit not given here; settings: mice, cited from earlier work
rotorod performance [5] = tested on: rotorod performance; set-up: unit not given beside the values; settings: mice; data from Swinyard & Woodhead 1982; cited from earlier work
[6] = tested on: premenstrual syndrome, PND, catamenial epilepsy; settings: patients, cited from earlier work
[7] = [35S]TBPS dissociation, rat cortex, 300 nM alphaxalone, 20 nM a-OH-DHP
[8] = [35S]TBPS dissociation, rat cortex, Na pentobarbital, 300 nM alphaxalone, 20 nM a-OH-DHP
[9] = 300 nM alphaxalone, 20 nM a-OH-DHP
[10] = convulsant administered i.v., data from Worms et al. 1982
[11] = data from Swinyard & Woodhead 1982, NP = no protection
[12] = data from Swinyard & Woodhead 1982

CC(=O)[C@H]1CC[C@H]2[C@@H]3CC[C@H]4C[C@H](O)CC[C@]4(C)[C@H]3CC[C@]12C [3α-OH-DHP, 3α-hydroxy-5α-pregnan-20-one]
biphasic dissociation mechanism of [35S]TBPS [1]: absent | t1/2, R (rapidly dissociating component) [1, 7]: 6.4 ± 1 | t1/2, S (slowly dissociating component) [1, 7]: 76 ± 11 | k-1, S (slowly dissociating component) [1, 8]: 0.011 ± 0.002 min⁻¹ | Total percentage of specific sites, R [1, 9]: 35 ± 3% | influence on the dissociation kinetics of [35S]TBPS binding ([1]; rat cerebral cortex): do not influence the dissociation kinetics | Total percentage of specific sites, S [1, 9]: 68 ± 3% | ED50 RR (rotorod) (rotorod performance [2]; 10 minutes after injection): 40-100 | sedative liability at anticonvulsant doses (rotorod performance [2]; rotorod ED50 compared with (+)bicuculline ED50): low | interaction with pentobarbital in the enhancement of [3H]flunitrazepam binding (BZ receptor): does not interact with pentobarbital | anticonvulsant activity / profile (convulsions): highly effective with a profile similar to that of the benzodiazepine clonazepam | toxicity, in words (Acute lethality (LD50)): very low toxicity

CC(=O)[C@H]1CC[C@H]2[C@@H]3CC[C@H]4C[C@@H](O)CC[C@]4(C)[C@H]3CC[C@]12C [ALLOPREGNANLONE, 5α-PREGNAN-3β-OL- 20-ONE]
CONTROL IC50 [3]: INACTIVE

NC(=O)CCC/N=C(\c1ccc(Cl)cc1)c1cc(F)ccc1O [Progabide]
ED50 PICRO (picrotoxin) (picrotoxin; [10]): 105 | ED50 STR (strychnine) (strychnine; [10]): 75 | ED50 BIC (bicuculline) [4, 10]: 30 | ED50 MTZ (metrazol) (metrazol; [10]): 30 | ED50 MES (maximal electroshock) (maximal electroshock; data from Worms et al. 1982): 75

CC(=O)[C@H]1CC[C@H]2[C@@H]3CC=C4C[C@@H](O)CC[C@]4(C)[C@H]3CC[C@]12C [PREGNENOLONE, 5α-PREGNEN-3β-OL- 20-ONE]
CONTROL IC50 [3]: INACTIVE

C[C@]12C[C@H](O)[C@H]3[C@@H](CCC4=CC(=O)CC[C@@]43C)[C@@H]1CC[C@@H]2C(=O)CO [CORTICOSTERONE, 4-PREGNEN-11β,21- DIOL-3,20-DIONE]
CONTROL IC50 [3]: INACTIVE

O=C1NC(=O)C(c2ccccc2)(c2ccccc2)N1 [Phenytoin]
ED50 PICRO (picrotoxin) (picrotoxin; [11]): NP | Maximum protection (strychnine) (strychnine; at 55-100 mg/kg, data from Swinyard & Woodhead 1982): 50% | ED50 BIC (bicuculline) [4, 11]: NP | ED50 MTZ (metrazol) (metrazol; [11]): NP

CC(C)CCC[C@@H](C)[C@H]1CC[C@H]2[C@@H]3CC=C4C[C@@H](O)CC[C@]4(C)[C@H]3CC[C@]12C [CHOLESTEROL]
+5 μM IC50 [3]: INACTIVE | CONTROL IC50 [3]: INACTIVE

CCCC(C)C1(CC)C(=O)NC(=O)NC1=O (stereo not shown) [Pentobarbital]
biphasic dissociation mechanism of [35S]TBPS [1]: induces a biphasic dissociation mechanism | t1/2, R (rapidly dissociating component) [1, 7]: 4.4 ± 0.3 | t1/2, S (slowly dissociating component) [1, 7]: 38 ± 3 | k-1, R (rapidly dissociating component) [1, 8]: 0.158 ± 0.013 min⁻¹ | k-1, S (slowly dissociating component) [1, 8]: 0.0186 ± 0.0015 min⁻¹ | Total percentage of specific sites, R [1, 9]: 48 ± 6% | Total percentage of specific sites, S [1, 9]: 61 ± 6%

CCC1(c2ccccc2)C(=O)NC(=O)NC1=O [Phenobarbital]
ED50 PICRO (picrotoxin) (picrotoxin; [11]): 28 | ED50 STR (strychnine) (strychnine; [11]): 95 | ED50 BIC (bicuculline) [4, 11]: 38 | ED50 MTZ (metrazol) (metrazol; [11]): 13 | ED50 RR (rotorod) (rotorod performance [5]): 69 | ED50 MES (maximal electroshock) (maximal electroshock; [12]): 22

C[C@]12CC[C@@H]3c4ccc(O)cc4CC[C@H]3[C@@H]1CC[C@@H]2O [17β-ESTRADIOL]
+5 μM IC50 [3]: INACTIVE | CONTROL IC50 [3]: INACTIVE

O=C1CN=C(c2ccccc2Cl)c2cc([N+](=O)[O-])ccc2N1 [Clonazepam]
ED50 PICRO (picrotoxin) (picrotoxin; [11]): 0.043 | ED50 STR (strychnine) (strychnine; [11]): NP | ED50 BIC (bicuculline) [4, 11]: 0.0086 | ED50 MTZ (metrazol) (metrazol; [11]): 0.009 | ED50 RR (rotorod) (rotorod performance [5]): 0.184 | ED50 MES (maximal electroshock) (maximal electroshock; [12]): 93

CCCC(CCC)C(=O)O [Valproate]
ED50 PICRO (picrotoxin) (picrotoxin; [11]): 387 | ED50 STR (strychnine) (strychnine; [11]): 293 | ED50 BIC (bicuculline) [4, 11]: 360 | ED50 MTZ (metrazol) (metrazol; [11]): 149 | ED50 MES (maximal electroshock) (maximal electroshock; [12]): 272

CC(=O)[C@H]1CC[C@H]2[C@@H]3CCC4=CC(=O)CC[C@]4(C)[C@H]3CC[C@]12C [PROGESTERONE]
effectiveness in the treatment of PMS, PND and catamenial epilepsy ([6]; literature): not consistently effective | dose-response relationship in the treatment of PMS ([6]; Maddocks et al., Dennerstein et al. 1986): no dose-response relationship exists | potency (and efficacy) at the GBR complex ([3]; in vitro, [35S]TBPS binding): very low potency
